Assay results from ChEMBL document CHEMBL1201862, “PubChem BioAssay data set” (2004).
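Test compounds were applied to cells in 96-well plates for 48 hours at 5 doses. The concentration for 50% growth inhibition is given as GI50.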 Active and inactive are the calls of the source. Rule as the data show it: active = GI50 up to about 1.1 µM and inactive = higher.

How the values were obtained:
Test in all cases: growth of human tumour cells (NCI), 48 h
SR = system: SR
RXF 393 = system: RXF 393
K562 = system: K562
EKVX = system: EKVX
HT-29 = system: HT-29
A549 = system: A549
MDA-MB-435 = system: MDA-MB-435
OVCAR-5 = system: OVCAR-5
U-251 = system: U-251
OVCAR-8 = system: OVCAR-8
DU-145 = system: DU-145
HL-60 = system: HL-60
MCF7 = system: MCF7
HOP-62 = system: HOP-62
RPMI-8226 = system: RPMI-8226
HOP-92 = system: HOP-92
NCI-H23 = system: NCI-H23
HCT-116 = system: HCT-116
SN12C = system: SN12C
NCI-H522 = system: NCI-H522
SW-620 = system: SW-620
SF-539 = system: SF-539
786-0 = system: 786-0
COLO 205 = system: COLO 205
Hs-578T = system: Hs-578T
NCI-H226 = system: NCI-H226
LOX IMVI = system: LOX IMVI
TK-10 = system: TK-10
CCRF-CEM = system: CCRF-CEM
CAKI-1 = system: CAKI-1
IGROV-1 = system: IGROV-1
UACC-257 = system: UACC-257
MOLT-4 = system: MOLT-4
UACC-62 = system: UACC-62
SK-MEL-5 = system: SK-MEL-5
MDA-N = system: MDA-N
SK-MEL-28 = system: SK-MEL-28
OVCAR-4 = system: OVCAR-4
T47D = system: T47D
OVCAR-3 = system: OVCAR-3
ACHN = system: ACHN
A498 = system: A498
SK-MEL-2 = system: SK-MEL-2
HCT-15 = system: HCT-15
SK-OV-3 = system: SK-OV-3
Malme-3M = system: Malme-3M
PC-3 = system: PC-3
SNB-75 = system: SNB-75
SNB-19 = system: SNB-19
NCI/ADR-RES = system: NCI/ADR-RES
MDA-MB-231 = system: MDA-MB-231
KM12 = system: KM12
NCI-H460 = system: NCI-H460
SF-295 = system: SF-295
UO-31 = system: UO-31
SF-268 = system: SF-268
M14 = system: M14
HCC 2998 = system: HCC 2998
BT-549 = system: BT-549

`CC(C)(C)COC(=O)C(C)(C)NC(=O)C(CC(=O)OCc1ccccc1)NC(=O)OCc1ccccc1` (stereo not given) was tested, and the GI50 (SR) was 25.5 µM (inactive), the GI50 (RXF 393) was > 100 µM (inactive) and the GI50 (K562) was 30.1 µM (inactive). For the same molecule, the GI50 (EKVX) was 54.3 µM (inactive), the GI50 (HT-29) was 24.8 µM (inactive) and the GI50 (A549) was 29.7 µM (inactive). The GI50 (MDA-MB-435) was 25.8 µM (inactive), the GI50 (OVCAR-5) was 26.8 µM (inactive) and the GI50 (U-251) was 31.5 µM (inactive). For the same molecule, the GI50 (OVCAR-8) was 40.1 µM (inactive), the GI50 (DU-145) was 62.2 µM (inactive) and the GI50 (HL-60) was 46.5 µM (inactive). For the same molecule, the GI50 (MCF7) was 32.4 µM (inactive), the GI50 (HOP-62) was 75 µM (inactive) and the GI50 (RPMI-8226) was 26.5 µM (inactive). For the same molecule, the GI50 (HOP-92) was 53.1 µM (inactive), the GI50 (NCI-H23) was 26.7 µM (inactive) and the GI50 (HCT-116) was 32.7 µM (inactive). The GI50 (SN12C) was 25.6 µM (inactive), the GI50 (NCI-H522) was 24 µM (inactive) and the GI50 (SW-620) was 60.4 µM (inactive). For the same molecule, the GI50 (SF-539) was 25.1 µM (inactive), the GI50 (786-0) was > 100 µM (inactive) and the GI50 (COLO 205) was 21 µM (inactive). The GI50 (Hs-578T) was 27.9 µM (inactive), the GI50 (NCI-H226) was 29.2 µM (inactive) and the GI50 (LOX IMVI) was 43.5 µM (inactive). The GI50 (TK-10) was 19.4 µM (inactive), the GI50 (CCRF-CEM) was 25.3 µM (inactive) and the GI50 (CAKI-1) was 58.2 µM (inactive). For the same molecule, the GI50 (IGROV-1) was 61 µM (inactive), the GI50 (UACC-257) was 25.5 µM (inactive) and the GI50 (MOLT-4) was 17.6 µM (inactive). For the same molecule, the GI50 (UACC-62) was 19.5 µM (inactive), the GI50 (SK-MEL-5) was 11.1 µM (inactive) and the GI50 (MDA-N) was 30.9 µM (inactive). The GI50 (SK-MEL-28) was > 100 µM (inactive), the GI50 (OVCAR-4) was 50.5 µM (inactive) and the GI50 (T47D) was 20.2 µM (inactive). For the same molecule, the GI50 (OVCAR-3) was 41.4 µM (inactive), the GI50 (ACHN) was 32.9 µM (inactive) and the GI50 (A498) was 28.2 µM (inactive). For the same molecule, the GI50 (SK-MEL-2) was 49 µM (inactive), the GI50 (HCT-15) was 25.6 µM and the GI50 (SK-OV-3) was 35.4 µM (inactive). For the same molecule, the GI50 (Malme-3M) was 29.6 µM (inactive), the GI50 (PC-3) was 25.7 µM (inactive) and the GI50 (SNB-75) was 13.9 µM (inactive). The GI50 (SNB-19) was 38.3 µM (inactive), the GI50 (NCI/ADR-RES) was 36.8 µM (inactive) and the GI50 (MDA-MB-231) was 42.9 µM (inactive). For the same molecule, the GI50 (KM12) was 35.2 µM (inactive), the GI50 (NCI-H460) was 30 µM (inactive) and the GI50 (SF-295) was 34.4 µM (inactive). The GI50 (UO-31) was 24 µM (inactive), the GI50 (SF-268) was 87.1 µM (inactive) and the GI50 (M14) was 32.1 µM (inactive). For the same molecule, the GI50 (HCC 2998) was 35.3 µM (inactive).

With `Cn1c(=O)sc2cc(C(=S)N3CCCCC3)ccc21` the GI50 (BT-549) was 66.4 µM (inactive), the GI50 (SR) was 22 µM (inactive) and the GI50 (RXF 393) was 38.8 µM (inactive). For the same molecule, the GI50 (K562) was 47.9 µM (inactive), the GI50 (EKVX) was 16.1 µM (inactive) and the GI50 (HT-29) was > 100 µM (inactive). For the same molecule, the GI50 (MDA-MB-435) was > 100 µM (inactive), the GI50 (OVCAR-5) was > 100 µM (inactive) and the GI50 (U-251) was 41.8 µM (inactive). For the same molecule, the GI50 (OVCAR-8) was 25.4 µM (inactive), the GI50 (DU-145) was > 100 µM (inactive) and the GI50 (HL-60) was 17.7 µM (inactive). For the same molecule, the GI50 (MCF7) was > 100 µM (inactive), the GI50 (HOP-62) was > 100 µM (inactive) and the GI50 (RPMI-8226) was 61 µM (inactive). For the same molecule, the GI50 (NCI-H23) was > 100 µM (inactive), the GI50 (HCT-116) was 89.7 µM (inactive) and the GI50 (SN12C) was > 100 µM (inactive). For the same molecule, the GI50 (SW-620) was > 100 µM (inactive), the GI50 (SF-539) was 54.5 µM (inactive) and the GI50 (786-0) was > 100 µM (inactive). The GI50 (COLO 205) was 57.9 µM (inactive), the GI50 (Hs-578T) was 30.8 µM (inactive) and the GI50 (NCI-H226) was 18.6 µM (inactive). For the same molecule, the GI50 (LOX IMVI) was 81.5 µM (inactive), the GI50 (TK-10) was > 100 µM (inactive) and the GI50 (CCRF-CEM) was 16.5 µM (inactive). The GI50 (CAKI-1) was 46.9 µM (inactive), the GI50 (IGROV-1) was 23.2 µM (inactive) and the GI50 (UACC-257) was > 100 µM (inactive). The GI50 (MOLT-4) was 27.6 µM (inactive), the GI50 (UACC-62) was > 100 µM (inactive) and the GI50 (SK-MEL-5) was > 100 µM (inactive). The GI50 (MDA-N) was > 100 µM (inactive), the GI50 (SK-MEL-28) was 56.4 µM (inactive) and the GI50 (OVCAR-3) was 69.2 µM (inactive). The GI50 (ACHN) was 96.2 µM (inactive), the GI50 (A498) was 59.7 µM (inactive) and the GI50 (SK-MEL-2) was > 100 µM (inactive). The GI50 (HCT-15) was 93.8 µM, the GI50 (SK-OV-3) was > 100 µM (inactive) and the GI50 (Malme-3M) was 0.865 µM (active). For the same molecule, the GI50 (PC-3) was 94.6 µM (inactive), the GI50 (SNB-75) was 19.9 µM (inactive) and the GI50 (SNB-19) was > 100 µM (inactive). The GI50 (NCI/ADR-RES) was 29.6 µM (inactive), the GI50 (MDA-MB-231) was 45.9 µM (inactive) and the GI50 (KM12) was > 100 µM (inactive). For the same molecule, the GI50 (NCI-H460) was > 100 µM (inactive), the GI50 (SF-295) was 92.7 µM (inactive) and the GI50 (SF-268) was 25.6 µM (inactive). For the same molecule, the GI50 (M14) was > 100 µM (inactive).
